Results: patent US8241648B2, “Amphiphilic or lipophilic polar functionalized fullerenes and their uses” (Luna Innovations Incorporated, priority 2007, dated 2012)

Assay: Radical addition of an unstable nitrogen:peroxide radical (immobilized activated amine, butanone peroxide, xylene), measured by HPLC
Settings: control anti-oxidant in xylene, same conditions
Method: An unstable nitrogen radical was made by adding butanone peroxide to nitrogen immobilized on a solid substrate in the presence of either C70, C60 or, as a control, the anti-oxidant Vitamin E in xylene. Radical addition of the substrate to the immobilized, activated amine is measured by HPLC. […] 74% of the C70 was bound to the nitrogen while only 27% of the C60 was bound.

Substance: Vitamin E
- reaction with the unstable nitrogen radical: did not react at all
